Reference: patent US4880824A, “Phenyl and benzoyl substituted imidazo-fused heterocyclic calcium channel blockers” (Ortho Pharmaceutical Corporation, priority 1987, dated 1989)
Where a name gives a salt, the structure may show the parent alone.

Key:
[1] = test system: calcium dependent smooth muscle contraction (trachea); test: Inhibition of Calcium Dependent Smooth Muscle Contraction (ICDSMC); parameters: species or system dogs; conditions: Canis lupus familiaris, 50 mM KCl
Protocol: Tracheal rings, one cartilage segment wide (5-10 mm), are cut starting from the bronchial end. After cutting the cartilage, the trachealis muscle tissue is suspended in oxygenated Krebs-Henseleit buffer at 37° C. in a 25 mL tissue bath. After a 60 min equilibration period, the tissues are challenged with 10 μM carbachol. After 5 min the tissues are rinsed and allowed to rest 50 min. The tissues are then challenged with 50 mM KCl and after 30 min, the contractions are quantitated. The tissues are then rinsed and reequilibrated for 50 min. Test compounds are then added for 10 min, and the tissue is rechallenged with 50 mM KCl.
The percent inhibition of smooth muscle contraction is calculated from response data before and after drug treatment according to the following equation. [formula]

[2] = target: T1, calcium channel (specifically bound 3H-nitrendipine, heart membranes) (Oryctolagus cuniculus, UniProt P15381); test: Nitrendipine Binding Assay (NBA); parameters: species or system New Zealand white rabbits; conditions: for IC50: 3H-nitrendipine 0.05-0.50 nM, 90 min at 4° C., pH 7.4
T1 construct: The heart is immediately removed, cleaned and chopped into small pieces; from tissue; host or cells: heart membranes of female New Zealand white rabbits (42,000×g pellet)
T1 sequence (P15381 whole entry, other chains not shown): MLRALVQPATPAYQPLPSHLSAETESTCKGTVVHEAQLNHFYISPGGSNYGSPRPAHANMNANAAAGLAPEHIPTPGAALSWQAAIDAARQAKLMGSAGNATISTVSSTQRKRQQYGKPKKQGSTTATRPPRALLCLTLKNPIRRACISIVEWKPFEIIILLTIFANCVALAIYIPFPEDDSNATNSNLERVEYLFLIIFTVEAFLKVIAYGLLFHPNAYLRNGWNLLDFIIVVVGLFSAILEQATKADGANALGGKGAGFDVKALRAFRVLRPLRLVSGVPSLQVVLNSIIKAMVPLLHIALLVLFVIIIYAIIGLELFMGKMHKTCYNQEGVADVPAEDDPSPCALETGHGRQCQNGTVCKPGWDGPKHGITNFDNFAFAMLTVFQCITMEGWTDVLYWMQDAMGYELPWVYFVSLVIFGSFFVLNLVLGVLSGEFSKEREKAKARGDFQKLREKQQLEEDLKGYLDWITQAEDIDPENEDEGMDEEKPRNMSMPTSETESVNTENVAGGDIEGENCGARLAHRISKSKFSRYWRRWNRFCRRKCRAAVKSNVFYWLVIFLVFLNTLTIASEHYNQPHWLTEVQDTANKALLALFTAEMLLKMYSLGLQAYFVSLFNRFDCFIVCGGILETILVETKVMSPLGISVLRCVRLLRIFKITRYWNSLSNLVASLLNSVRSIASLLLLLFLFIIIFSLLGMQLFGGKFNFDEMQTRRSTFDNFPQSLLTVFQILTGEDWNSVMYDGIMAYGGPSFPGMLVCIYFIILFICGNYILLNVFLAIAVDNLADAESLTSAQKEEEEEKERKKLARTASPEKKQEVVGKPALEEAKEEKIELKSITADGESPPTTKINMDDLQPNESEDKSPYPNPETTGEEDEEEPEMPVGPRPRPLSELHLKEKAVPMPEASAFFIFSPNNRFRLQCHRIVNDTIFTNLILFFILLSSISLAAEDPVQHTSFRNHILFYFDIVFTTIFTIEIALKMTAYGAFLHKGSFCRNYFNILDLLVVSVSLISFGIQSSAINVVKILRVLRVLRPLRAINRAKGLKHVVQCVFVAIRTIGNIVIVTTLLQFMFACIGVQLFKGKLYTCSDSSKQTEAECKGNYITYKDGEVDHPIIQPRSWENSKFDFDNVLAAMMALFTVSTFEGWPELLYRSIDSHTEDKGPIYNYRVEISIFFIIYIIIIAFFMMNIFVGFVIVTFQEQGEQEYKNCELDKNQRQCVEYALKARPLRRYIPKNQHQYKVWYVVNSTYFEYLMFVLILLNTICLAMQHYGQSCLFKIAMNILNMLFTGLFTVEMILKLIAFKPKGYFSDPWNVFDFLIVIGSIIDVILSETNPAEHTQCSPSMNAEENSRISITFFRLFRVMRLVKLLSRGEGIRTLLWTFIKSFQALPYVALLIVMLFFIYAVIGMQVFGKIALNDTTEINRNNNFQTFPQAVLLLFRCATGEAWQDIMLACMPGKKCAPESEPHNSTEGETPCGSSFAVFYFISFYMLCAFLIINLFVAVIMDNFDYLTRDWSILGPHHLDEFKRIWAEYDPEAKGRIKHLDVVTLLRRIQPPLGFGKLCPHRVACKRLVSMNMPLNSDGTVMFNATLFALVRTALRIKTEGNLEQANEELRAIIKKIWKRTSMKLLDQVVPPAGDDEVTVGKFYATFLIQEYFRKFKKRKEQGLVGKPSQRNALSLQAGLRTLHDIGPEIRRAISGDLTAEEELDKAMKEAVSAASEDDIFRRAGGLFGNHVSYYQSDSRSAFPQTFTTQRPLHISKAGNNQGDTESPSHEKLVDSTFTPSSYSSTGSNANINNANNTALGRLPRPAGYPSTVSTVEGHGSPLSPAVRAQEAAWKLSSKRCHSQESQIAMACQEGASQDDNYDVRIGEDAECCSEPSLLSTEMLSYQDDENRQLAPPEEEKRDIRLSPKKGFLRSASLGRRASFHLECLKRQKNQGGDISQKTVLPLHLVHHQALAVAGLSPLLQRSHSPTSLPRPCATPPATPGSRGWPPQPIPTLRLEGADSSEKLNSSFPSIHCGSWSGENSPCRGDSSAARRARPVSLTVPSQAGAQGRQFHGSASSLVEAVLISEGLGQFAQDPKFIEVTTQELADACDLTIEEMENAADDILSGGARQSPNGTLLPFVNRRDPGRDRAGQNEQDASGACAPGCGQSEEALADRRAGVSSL
T1 sequence (P13806 27-960 partner limits assumed, other chains not shown): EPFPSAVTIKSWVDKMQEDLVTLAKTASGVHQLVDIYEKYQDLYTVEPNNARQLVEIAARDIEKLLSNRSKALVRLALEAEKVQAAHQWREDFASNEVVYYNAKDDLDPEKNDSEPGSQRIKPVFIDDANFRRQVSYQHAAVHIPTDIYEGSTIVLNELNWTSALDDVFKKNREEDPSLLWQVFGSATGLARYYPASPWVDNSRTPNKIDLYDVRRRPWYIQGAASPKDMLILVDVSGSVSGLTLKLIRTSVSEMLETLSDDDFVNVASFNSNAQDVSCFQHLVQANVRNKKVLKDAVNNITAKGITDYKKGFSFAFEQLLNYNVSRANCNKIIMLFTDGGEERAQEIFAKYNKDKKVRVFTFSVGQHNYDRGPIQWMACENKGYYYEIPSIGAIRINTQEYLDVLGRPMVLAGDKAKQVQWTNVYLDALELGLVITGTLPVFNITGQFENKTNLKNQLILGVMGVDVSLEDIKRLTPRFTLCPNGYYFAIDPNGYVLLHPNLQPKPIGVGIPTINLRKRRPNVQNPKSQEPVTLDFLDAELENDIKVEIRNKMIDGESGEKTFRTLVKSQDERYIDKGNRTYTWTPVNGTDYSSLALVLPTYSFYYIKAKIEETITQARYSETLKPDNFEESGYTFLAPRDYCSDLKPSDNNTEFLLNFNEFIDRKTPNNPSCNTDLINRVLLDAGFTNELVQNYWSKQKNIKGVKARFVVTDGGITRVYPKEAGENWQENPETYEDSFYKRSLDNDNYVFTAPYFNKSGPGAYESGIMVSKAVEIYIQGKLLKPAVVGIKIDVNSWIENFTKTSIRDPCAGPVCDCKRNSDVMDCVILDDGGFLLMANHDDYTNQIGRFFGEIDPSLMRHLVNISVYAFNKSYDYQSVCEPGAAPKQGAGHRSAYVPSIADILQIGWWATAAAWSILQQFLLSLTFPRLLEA
T1 sequence (P13806 961-1106 partner limits assumed, other chains not shown): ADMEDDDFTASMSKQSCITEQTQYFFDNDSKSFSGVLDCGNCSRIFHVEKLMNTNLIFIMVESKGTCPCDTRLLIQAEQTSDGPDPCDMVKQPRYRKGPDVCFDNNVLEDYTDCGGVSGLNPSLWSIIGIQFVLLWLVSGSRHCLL
Protocol: The NBA is performed on female, New Zealand white rabbits (1-2 kg) which are sacrificed by cervical dislocation. The heart is immediately removed, cleaned and chopped into small pieces. The tissue is homogenized in 5X volume of 0.05M Hepes buffer, pH 7.4. The homogenate is centrifuged at 4000×g for 10 min; the supernatant is recentrifuged at 42,000×g for 90 min. The resulting membrane pellet is resuspended (0.7 ml/g weight in 0.05M Hepes, pH 7.4 and stored at -70° C. until used. Each tube of the binding assay contains ^3 H-nitrendipine (0.05-0.50nM), buffer, membranes (0.10mL), and test compound in a total volume of 1.0 mL. After 90 min at 4° C., the bound nitrendipine is separated from the unbound by filtration on Whatman GF/C fibers. After rinsing, the filters are dried and counted in a liquid scintillation counter.
Non-specific binding of ^3 H-nitrendipine (that amount bound in the presence of excess unlabelled nitrendipine) is subtracted from the total bound to obtain specifically bound radiolabeled nitrendipine. The amount of specifically bound nitrendipine in the presence of a test compound is compared to that amount bound in the absence of a compound. A percent displacement (or inhibition) can then be obtained.

CCCCN(CCCC)CCCOc1ccc(C(=O)c2cnc3nc(C)ccn23)cc1 [Example 9b, 3-(4-Dibutylaminopropoxybenzoyl)-7-methylimidazo[1,2-a]-pyrimidine hydrochloride]
inhibition at 10 µM [1]: 19%

CCCCN(CCCC)CCCOc1ccc(-c2nc3sccn3c2C)cc1 [Example 3, 6-(4-Dibutylaminopropoxyphenyl)-5-methylimidazo[2,1-b]thiazole hydrochloride]
inhibition at 1 µM [1]: 11%
inhibition at 10 µM [1]: 75%
IC50 [2]: 1.3 µM

CCCCN(CCCC)CCCOc1ccc(-c2cn3nccnc3n2)cc1 [Example 5, 2-(4-Dibutylaminopropoxyphenyl)imidazo[1,2-b]-1,2,4-triazine hydrochloride]
inhibition at 10 µM [1]: 45%
inhibition at 20 µM [1]: 85%
IC50 [2]: 0.6 µM

CCCCN(CCCC)CCCOc1ccc(C(=O)c2cnc3ncccn23)cc1 [Example 8c, 3-(4-Dibutylaminopropoxybenzoyl)imidazo[1,2-a]pyrimidine dihydrochloride]
inhibition at 1 µM [1]: 70%
inhibition at 0.1 µM ([1]; @ .1 μM): 37%
inhibition at 0.5 µM ([1]; @ .5 μM): 60%
IC50 [2]: 7 µM

CCCCN(CCCC)CCCOc1ccc(-c2cn3c(n2)sc2ccccc23)cc1 [Example 4, 6-(4-Dibutylaminopropoxyphenyl)imidazo[2,1-b]benzothiadihydrochloride]
inhibition at 20 µM [1]: 38%
IC50 [2]: 3.1 µM

CCCCN(CCCC)CCCOc1ccc(-c2cn3ccsc3n2)cc1 [Example 2, 6-(4-Dibutylaminopropoxyphenyl)imidazo[2,1-b]thiazole dihydrochloride]
inhibition at 1 µM [1]: 8%
inhibition at 2 µM [1]: 24%
inhibition at 10 µM [1]: 55%
inhibition at 20 µM [1]: 81%
IC50 [2]: 1.5 µM

CCCCN(CCCC)CCCOc1ccc(-c2cn3cccnc3n2)cc1 [Example 6, 2-(4-Dibutylaminopropoxyphenyl)imidazo[1,2-a]pyrimidine dihydrochloride]
inhibition at 2 µM [1]: 26%
inhibition at 10 µM [1]: 46%
inhibition at 20 µM [1]: 65%
inhibition at 68 µM ([2]; @ 68 μM, read-out: NBA percent displacement (or inhibition)): 43%

CCCCN(CCCC)CCCOc1ccc(-c2cn3ccc(C)nc3n2)cc1 [Example 7, 2-(4-Dibutylaminopropoxyphenyl)-7-methylimidazo-[1,2-a]pyrimidine trihydrochloride]
inhibition at 2 µM [1]: 25%
inhibition at 10 µM [1]: 39%

CCCCN(CCCC)CCCOc1ccc(-c2cn3nc(C)sc3n2)cc1 [Example 1d, 6-(4-Dibutylaminopropoxyphenyl)-2-methylimidazo[2,1-b]-1,3,4-thiadiazoledihydrochloride]
inhibition at 1 µM [1]: 50%
inhibition at 5 µM ([1]; @ 5 μM): 27%
inhibition at 10 µM [1]: 82%
IC50 [2]: 1.1 µM
